tested on: HIV; test: MT4 assay: antiviral HIV activity (cell protection, cell titer glo readout at 96 hours); type: cell-based; details: Human immunodeficiency virus 1, MT4, 96 h, MT4 cells, cell titer glo readout at 96 hours, 10 point dose response; read-out: HIV MT4 Assay IC50
Method in brief: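 MT-4 cells infected with HIV, with inhibition readout by CellTiter-Glo luminescence at 96 h relative to no-compound control. Cytotoxicity measured in parallel under the same conditions. IC50 from a 10-point, 3-4-fold dilution series spanning >1000-fold, fitted with a four-parameter logistic equation.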

Row | Compound | IC50 [nM]
1 | Cc1nc2c(cc(CCc3ccc4cnn(C)c4c3)n2C)c(-c2cc(F)c3c(c2C)CCCO3)c1[C@H](OC(C)(C)C)C(=O)O [Example 286] | 15
2 | Cc1nc2c(cc(CN3CCc4ccc(N5CCCCC5)cc4C3)n2C)c(-c2cc(F)c3c(c2C)CCCO3)c1[C@H](OC(C)(C)C)C(=O)O [Example 291] | 44.4
3 | Cc1nc2c(cc(CN3CC[C@@H](NC(=O)c4ccc5c(cnn5C)c4)C3)n2C)c(-c2cc(F)c3c(c2C)CCCO3)c1[C@H](OC(C)(C)C)C(=O)O [Example 293] | 44.3
4 | Cc1nc2c(cc(CN(C)C(=O)c3ccc4c(cnn4C)c3)n2C)c(-c2cc(F)c3c(c2C)CCCO3)c1[C@H](OC(C)(C)C)C(=O)O [Example 296] | 28.5
5 | Cc1nc2c(cc(CCC(=O)Nc3ccc4c(cnn4C)c3)n2C)c(-c2cc(F)c3c(c2C)CCCO3)c1[C@H](OC(C)(C)C)C(=O)O [Example 298] | 258
6 | Cc1nc2c(cc(CCC(=O)N(C)c3ccc4c(cnn4C)c3)n2C)c(-c2cc(F)c3c(c2C)CCCO3)c1[C@H](OC(C)(C)C)C(=O)O [Example 299] | 39.3
7 | Cc1nc2c(cc(-c3nnc(N4CCCN(C5COC5)CC4)o3)n2C)c(-c2cc(F)c3c(c2C)CCCO3)c1[C@H](OC(C)(C)C)C(=O)O [Example 302] | 44.2
8 | Cc1nc2c(cc(-c3nnc(NCC4CCOCC4)o3)n2C)c(-c2cc(F)c3c(c2C)CCCO3)c1[C@H](OC(C)(C)C)C(=O)O [Example 304] | 40.9
9 | Cc1nc2c(cc(-c3nnc(N(C)CCN4CCCC4)o3)n2C)c(-c2cc(F)c3c(c2C)CCCO3)c1[C@H](OC(C)(C)C)C(=O)O [Example 305] | 44.9
10 | Cc1nc2c(cc(-c3nnc(N4CCCN(C)CC4)o3)n2C)c(-c2cc(F)c3c(c2C)CCCO3)c1[C@H](OC(C)(C)C)C(=O)O [Example 306] | 51.8
11 | Cc1nc2c(cc(-c3nnc(N(C)C)o3)n2C)c(-c2cc(F)c3c(c2C)CCCO3)c1[C@H](OC(C)(C)C)C(=O)O [Example 308] | 14
12 | Cc1nc2c(cc(-c3nnc(N4CC5CN(C6COC6)CC5C4)o3)n2C)c(-c2cc(F)c3c(c2C)CCCO3)c1[C@H](OC(C)(C)C)C(=O)O (some centres unmarked) [Example 309] | 46
13 | Cc1nc2c(cc(-c3nnc(N4CCOCC4)o3)n2C)c(-c2cc(F)c3c(c2C)CCCO3)c1[C@H](OC(C)(C)C)C(=O)O [Example 310] | 15.4
14 | Cc1nc2c(cc(-c3nnc(N4CCN(C)CC4)o3)n2C)c(-c2cc(F)c3c(c2C)CCCO3)c1[C@H](OC(C)(C)C)C(=O)O [Example 312] | 19.9
15 | Cc1nc2c(cc(-c3nnc(N4CCC(F)(F)CC4)o3)n2C)c(-c2cc(F)c3c(c2C)CCCO3)c1[C@H](OC(C)(C)C)C(=O)O [Example 314] | 7.6
16 | Cc1nc2c(cc(-c3nnc(N4CCN(C5COC5)CC4)o3)n2C)c(-c2cc(F)c3c(c2C)CCCO3)c1[C@H](OC(C)(C)C)C(=O)O [Example 315] | 40.6
17 | Cc1nc2c(cc(-c3nnc(N4CCS(=O)(=O)CC4)o3)n2C)c(-c2cc(F)c3c(c2C)CCCO3)c1[C@H](OC(C)(C)C)C(=O)O [Example 316] | 566
18 | Cc1nc2c(cc(-c3nnc(N4CCC(N5CCCCC5)CC4)o3)n2C)c(-c2cc(F)c3c(c2C)CCCO3)c1[C@H](OC(C)(C)C)C(=O)O [Example 317] | 118

Row | Compound | IC50 [nM]
19 | Cc1nc2c(cc(-c3nnc(N4CCC(N5CCOCC5)CC4)o3)n2C)c(-c2cc(F)c3c(c2C)CCCO3)c1[C@H](OC(C)(C)C)C(=O)O [Example 318] | 14.2
20 | Cc1nc2c(cc(-c3nnc(N4CCN(S(=O)(=O)N5CCCCC5)CC4)o3)n2C)c(-c2cc(F)c3c(c2C)CCCO3)c1[C@H](OC(C)(C)C)C(=O)O [Example 319] | 4.9
21 | Cc1nc2c(cc(-c3nnc(N4CCC(N5CCS(=O)(=O)CC5)CC4)o3)n2C)c(-c2cc(F)c3c(c2C)CCCO3)c1[C@H](OC(C)(C)C)C(=O)O [Example 320] | 380
22 | Cc1nc2c(cc(-c3nnc(N4CCC5(CCCCC5)CC4)o3)n2C)c(-c2cc(F)c3c(c2C)CCCO3)c1[C@H](OC(C)(C)C)C(=O)O [Example 321] | 13.5
23 | Cc1nc2c(cc(-c3nnc(N4CCN(CC5CCOCC5)CC4)o3)n2C)c(-c2cc(F)c3c(c2C)CCCO3)c1[C@H](OC(C)(C)C)C(=O)O [Example 322] | 4.6
24 | Cc1nc2c(cc(-c3nnc(N4CCC(OC(C)C)CC4)o3)n2C)c(-c2cc(F)c3c(c2C)CCCO3)c1[C@H](OC(C)(C)C)C(=O)O [Example 323] | 5.2
25 | Cc1nc2c(cc(-c3nnc(N4CCC(n5cccn5)CC4)o3)n2C)c(-c2cc(F)c3c(c2C)CCCO3)c1[C@H](OC(C)(C)C)C(=O)O [Example 327] | 9.4
26 | Cc1nc2c(cc(-c3nnc(N4CCN(C5CCOCC5)C[C@H]4C)o3)n2C)c(-c2cc(F)c3c(c2C)CCCO3)c1[C@H](OC(C)(C)C)C(=O)O [Example 328] | 4.2
27 | Cc1nc2c(cc(-c3nnc(N4CCN5CCOC[C@@H]5C4)o3)n2C)c(-c2cc(F)c3c(c2C)CCCO3)c1[C@H](OC(C)(C)C)C(=O)O [Example 333] | 16.5
28 | Cc1nc2c(cc(-c3nnc(N4CCN(C5CCOCC5)[C@@H](C)C4)o3)n2C)c(-c2cc(F)c3c(c2C)CCCO3)c1[C@H](OC(C)(C)C)C(=O)O [Example 335] | 10.1
29 | Cc1nc2c(cc(-c3nnc(N4CCN(C5CC5)CC4)o3)n2C)c(-c2cc(F)c3c(c2C)CCCO3)c1[C@H](OC(C)(C)C)C(=O)O [Example 336] | 4.5
30 | Cc1nc2c(cc(-c3nnc(N4CCN(CC5CC5)CC4)o3)n2C)c(-c2cc(F)c3c(c2C)CCCO3)c1[C@H](OC(C)(C)C)C(=O)O [Example 337] | 4.6
31 | Cc1nc2c(cc(-c3nnc(N4CCN(CCN5CCOCC5)CC4)o3)n2C)c(-c2cc(F)c3c(c2C)CCCO3)c1[C@H](OC(C)(C)C)C(=O)O [Example 340] | 43.2
32 | Cc1nc2c(cc(-c3nnc(NCCN4CCN(C)CC4)o3)n2C)c(-c2cc(F)c3c(c2C)CCCO3)c1[C@H](OC(C)(C)C)C(=O)O [Example 341] | 1250
33 | Cc1nc2c(cc(-c3nnc(N4CCN(C(C)C)CC4)o3)n2C)c(-c2cc(F)c3c(c2C)CCCO3)c1[C@H](OC(C)(C)C)C(=O)O [Example 342] | 5.4
34 | Cc1nc2c(cc(-c3nnc(N(C)CCN4CCOCC4)o3)n2C)c(-c2cc(F)c3c(c2C)CCCO3)c1[C@H](OC(C)(C)C)C(=O)O [Example 343] | 10.6
35 | Cc1nc2c(cc(-c3nnc(N4CCC(N5CCCC5)CC4)o3)n2C)c(-c2cc(F)c3c(c2C)CCCO3)c1[C@H](OC(C)(C)C)C(=O)O [Example 344] | 130

The remaining lines, values ahead:

Row | IC50 [nM] | Compound
36 | 46.6 | Cc1nc2c(cc(CCc3ccncc3)n2C)c(-c2cc(F)c3c(c2C)CCCO3)c1[C@H](OC(C)(C)C)C(=O)O [Example 285]
37 | 171 | Cc1nc2c(cc(CN3CCCN(C4COC4)CC3)n2C)c(-c2cc(F)c3c(c2C)CCCO3)c1[C@H](OC(C)(C)C)C(=O)O [Example 289]
38 | 48.1 | COC[C@H]1CCCN1Cc1cc2c(-c3cc(F)c4c(c3C)CCCO4)c([C@H](OC(C)(C)C)C(=O)O)c(C)nc2n1C [Example 290]
39 | 41.3 | Cc1nc2c(cc(CN3CCC[C@H]3C(=O)Nc3ccc4c(cnn4C)c3)n2C)c(-c2cc(F)c3c(c2C)CCCO3)c1[C@H](OC(C)(C)C)C(=O)O [Example 292]
40 | 38.6 | Cc1nc2c(cc(CN3CCC[C@H](NC(=O)c4ccc5c(cnn5C)c4)C3)n2C)c(-c2cc(F)c3c(c2C)CCCO3)c1[C@H](OC(C)(C)C)C(=O)O [Example 294]
41 | 51.2 | Cc1nc2c(cc(CN3CCC[C@@H]3CO)n2C)c(-c2cc(F)c3c(c2C)CCCO3)c1[C@H](OC(C)(C)C)C(=O)O [Example 295]
42 | 3.9 | Cc1nc2c(cc(-c3nnc(N4CCC(C)CC4)o3)n2C)c(-c2cc(F)c3c(c2C)CCCO3)c1[C@H](OC(C)(C)C)C(=O)O [Example 301]
43 | 3.9 | COC1CCN(c2nnc(-c3cc4c(-c5cc(F)c6c(c5C)CCCO6)c([C@H](OC(C)(C)C)C(=O)O)c(C)nc4n3C)o2)CC1 [Example 303]
44 | 12.3 | COCCN(C)c1nnc(-c2cc3c(-c4cc(F)c5c(c4C)CCCO5)c([C@H](OC(C)(C)C)C(=O)O)c(C)nc3n2C)o1 [Example 307]
45 | 4.5 | Cc1nc2c(cc(-c3nnc(N4CCCC4)o3)n2C)c(-c2cc(F)c3c(c2C)CCCO3)c1[C@H](OC(C)(C)C)C(=O)O [Example 311]
46 | 8.4 | Cc1nc2c(cc(-c3nnc(CN4CCCCC4)o3)n2C)c(-c2cc(F)c3c(c2C)CCCO3)c1[C@H](OC(C)(C)C)C(=O)O [Example 313]
47 | 4 | Cc1nc2c(cc(-c3nnc(N4CCC[C@@H]4C)o3)n2C)c(-c2cc(F)c3c(c2C)CCCO3)c1[C@H](OC(C)(C)C)C(=O)O [Example 324]
48 | 13.6 | Cc1nc2c(cc(-c3nnc(N4CCC4)o3)n2C)c(-c2cc(F)c3c(c2C)CCCO3)c1[C@H](OC(C)(C)C)C(=O)O [Example 325]
49 | 3.8 | Cc1nc2c(cc(-c3nnc(N4CCN5CCC[C@@H]5C4)o3)n2C)c(-c2cc(F)c3c(c2C)CCCO3)c1[C@H](OC(C)(C)C)C(=O)O [Example 326]
50 | 13.4 | Cc1nc2c(cc(-c3nnc(N4CCOC[C@@H]4C)o3)n2C)c(-c2cc(F)c3c(c2C)CCCO3)c1[C@H](OC(C)(C)C)C(=O)O [Example 329]
51 | 12.8 | COC[C@H]1CCCN1c1nnc(-c2cc3c(-c4cc(F)c5c(c4C)CCCO5)c([C@H](OC(C)(C)C)C(=O)O)c(C)nc3n2C)o1 [Example 330]
52 | 4.3 | Cc1nc2c(cc(-c3nnc(N4CC[C@@H](F)C4)o3)n2C)c(-c2cc(F)c3c(c2C)CCCO3)c1[C@H](OC(C)(C)C)C(=O)O [Example 331]
53 | 23.8 | Cc1nc2c(cc(-c3nnc(N4CC[C@H](N(C)C)C4)o3)n2C)c(-c2cc(F)c3c(c2C)CCCO3)c1[C@H](OC(C)(C)C)C(=O)O [Example 332]
54 | 10.4 | Cc1nc2c(cc(-c3nnc(N4CCOC[C@H]4C)o3)n2C)c(-c2cc(F)c3c(c2C)CCCO3)c1[C@H](OC(C)(C)C)C(=O)O [Example 334]
55 | 28.8 | COCC1CCCN1C1CCN(c2nnc(-c3cc4c(-c5cc(F)c6c(c5C)CCCO6)c([C@H](OC(C)(C)C)C(=O)O)c(C)nc4n3C)o2)CC1 (some centres unmarked) [Example 339]
56 | 2.7 | Cc1nc2c(cc(-c3nnc(N4CCCCC4)o3)n2C)c(-c2cc(F)c3c(c2C)CCCO3)c1[C@H](OC(C)(C)C)C(=O)O [Example 345]
